According to patent publication US20250136568A1, “FUSED HETEROCYCLIC COMPOUNDS AS PI3KALPHA INHIBITORS” (Nanjing Zenshine Pharmaceuticals Co., Ltd., priority 2021, published 2025):
Where two headings read alike, the source gives them in different places.

Legend:
[1] = test system: PI3Kα wide type cell line SK-BR-3; test: Cell Proliferation IC50 Assay (CellTiter-Glo), SK-BR-3; assay type: cell-based; details: SK-BR-3 (PI3Kα wild type), 72 hours, CellTiter-Glo, read-out: IC50 (μM) SK-BR-3
Method in brief: (§1)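 Read-out was CellTiter-Glo luminescence after 72 h of compound exposure at 37 °C, 5% CO2. Cells had been plated overnight in complete medium before the compound was added at a 200-fold final dilution. IC50 was derived from percent inhibition.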

[2] = test system: PI3Kα H1047R mutation cell line MDA-MB-453; test: Cell Proliferation IC50 Assay (CellTiter-Glo), MDA-MB-453; assay type: cell-based; details: read-out: IC50 (μM) MDA-MB-453
Method in brief: as §1

[3] = test system: PI3Kα H1047R mutation cell line T-47D; test: Cell Proliferation IC50 Assay (CellTiter-Glo), T-47D; assay type: cell-based; details: T47D (H1047R), 72 hours, CellTiter-Glo, read-out: IC50 (μM) T47D
Method in brief: as §1

PI3Kβ = target: T1, PI3Kβ (Homo sapiens, UniProt P42338); test: Selectivity study, p-AKT (Ser473) HTRF assay in 786-O cells; assay type: cell-based; details: 786-O cell, 1 hour incubation, serum-free medium
T1 construct: endogenous in cells; host or cells: 786-O
T1 sequence (P42338 whole entry): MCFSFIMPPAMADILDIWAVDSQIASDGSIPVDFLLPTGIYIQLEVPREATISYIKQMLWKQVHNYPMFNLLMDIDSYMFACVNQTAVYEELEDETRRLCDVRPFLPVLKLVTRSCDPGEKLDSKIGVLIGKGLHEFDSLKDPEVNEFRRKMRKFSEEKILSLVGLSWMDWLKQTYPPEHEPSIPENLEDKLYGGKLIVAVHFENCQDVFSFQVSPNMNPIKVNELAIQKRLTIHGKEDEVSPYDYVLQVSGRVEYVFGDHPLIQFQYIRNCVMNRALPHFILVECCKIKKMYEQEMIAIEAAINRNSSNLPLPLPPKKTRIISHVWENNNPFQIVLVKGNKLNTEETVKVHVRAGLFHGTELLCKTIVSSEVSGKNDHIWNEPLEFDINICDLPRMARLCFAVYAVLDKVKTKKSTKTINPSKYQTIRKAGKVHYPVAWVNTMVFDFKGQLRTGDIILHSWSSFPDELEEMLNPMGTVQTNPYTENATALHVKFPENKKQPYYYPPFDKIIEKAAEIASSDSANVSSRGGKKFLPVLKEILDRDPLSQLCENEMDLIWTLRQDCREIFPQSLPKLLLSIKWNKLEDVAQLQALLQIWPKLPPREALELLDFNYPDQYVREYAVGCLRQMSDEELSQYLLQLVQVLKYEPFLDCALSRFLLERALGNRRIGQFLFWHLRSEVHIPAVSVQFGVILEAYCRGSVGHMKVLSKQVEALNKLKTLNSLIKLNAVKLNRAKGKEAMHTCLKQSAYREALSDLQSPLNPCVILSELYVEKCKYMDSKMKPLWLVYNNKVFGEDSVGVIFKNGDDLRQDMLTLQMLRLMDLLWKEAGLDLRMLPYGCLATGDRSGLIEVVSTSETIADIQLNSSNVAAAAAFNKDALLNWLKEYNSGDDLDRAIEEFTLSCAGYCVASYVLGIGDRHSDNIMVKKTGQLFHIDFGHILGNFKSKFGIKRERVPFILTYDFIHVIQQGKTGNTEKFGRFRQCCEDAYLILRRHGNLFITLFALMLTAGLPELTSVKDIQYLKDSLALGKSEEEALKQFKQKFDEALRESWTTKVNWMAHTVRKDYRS
T1 sequence (P27986 whole entry partner): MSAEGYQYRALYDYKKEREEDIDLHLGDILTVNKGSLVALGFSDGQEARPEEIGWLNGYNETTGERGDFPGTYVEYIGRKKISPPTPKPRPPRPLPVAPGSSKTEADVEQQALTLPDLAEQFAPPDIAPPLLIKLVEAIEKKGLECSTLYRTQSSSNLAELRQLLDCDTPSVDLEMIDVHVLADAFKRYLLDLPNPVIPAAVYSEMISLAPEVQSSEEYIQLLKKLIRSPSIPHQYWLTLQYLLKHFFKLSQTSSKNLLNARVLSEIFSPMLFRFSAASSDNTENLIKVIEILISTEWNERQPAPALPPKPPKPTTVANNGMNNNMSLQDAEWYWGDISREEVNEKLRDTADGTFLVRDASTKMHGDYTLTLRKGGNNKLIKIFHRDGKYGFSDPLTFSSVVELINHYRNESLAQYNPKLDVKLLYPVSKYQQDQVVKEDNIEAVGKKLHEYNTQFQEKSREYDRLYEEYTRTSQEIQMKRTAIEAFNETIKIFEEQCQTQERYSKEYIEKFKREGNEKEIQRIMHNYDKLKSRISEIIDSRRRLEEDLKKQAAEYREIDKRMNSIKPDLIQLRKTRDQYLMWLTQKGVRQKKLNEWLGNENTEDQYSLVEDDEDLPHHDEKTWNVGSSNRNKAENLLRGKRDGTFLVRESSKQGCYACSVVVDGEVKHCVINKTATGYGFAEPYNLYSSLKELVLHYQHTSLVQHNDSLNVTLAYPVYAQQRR
Protocol: The following day, the complete medium was replaced with serum-free medium, 3-fold serial diluted compound solution in serum-free medium was added to each well according to the plate map. After 1 hour incubation, removed cell supernatant carefully and added supplemented lysis buffer (1×) for 45 min. The lysate was transferred to a 384-well small volume white plate, the CisBio Phospho-AKT (Ser473) HTRF assay was performed as the manufacturer's directions (Cisbio, #64AKSPEG).

PI3Kα H1047R mutant = PI3Kα H1047R mutant (Homo sapiens, UniProt P42336, H1047R); test: pAKT (S473) ELISA assay in PI3Kα H1047R mutant cell line (T47D); assay type: cell-based; details: T47D cells, two hours compound, IGF-1 50 ng/ml stimulation
PI3Kα H1047R mutant, sequence (P42336 whole entry H1047R): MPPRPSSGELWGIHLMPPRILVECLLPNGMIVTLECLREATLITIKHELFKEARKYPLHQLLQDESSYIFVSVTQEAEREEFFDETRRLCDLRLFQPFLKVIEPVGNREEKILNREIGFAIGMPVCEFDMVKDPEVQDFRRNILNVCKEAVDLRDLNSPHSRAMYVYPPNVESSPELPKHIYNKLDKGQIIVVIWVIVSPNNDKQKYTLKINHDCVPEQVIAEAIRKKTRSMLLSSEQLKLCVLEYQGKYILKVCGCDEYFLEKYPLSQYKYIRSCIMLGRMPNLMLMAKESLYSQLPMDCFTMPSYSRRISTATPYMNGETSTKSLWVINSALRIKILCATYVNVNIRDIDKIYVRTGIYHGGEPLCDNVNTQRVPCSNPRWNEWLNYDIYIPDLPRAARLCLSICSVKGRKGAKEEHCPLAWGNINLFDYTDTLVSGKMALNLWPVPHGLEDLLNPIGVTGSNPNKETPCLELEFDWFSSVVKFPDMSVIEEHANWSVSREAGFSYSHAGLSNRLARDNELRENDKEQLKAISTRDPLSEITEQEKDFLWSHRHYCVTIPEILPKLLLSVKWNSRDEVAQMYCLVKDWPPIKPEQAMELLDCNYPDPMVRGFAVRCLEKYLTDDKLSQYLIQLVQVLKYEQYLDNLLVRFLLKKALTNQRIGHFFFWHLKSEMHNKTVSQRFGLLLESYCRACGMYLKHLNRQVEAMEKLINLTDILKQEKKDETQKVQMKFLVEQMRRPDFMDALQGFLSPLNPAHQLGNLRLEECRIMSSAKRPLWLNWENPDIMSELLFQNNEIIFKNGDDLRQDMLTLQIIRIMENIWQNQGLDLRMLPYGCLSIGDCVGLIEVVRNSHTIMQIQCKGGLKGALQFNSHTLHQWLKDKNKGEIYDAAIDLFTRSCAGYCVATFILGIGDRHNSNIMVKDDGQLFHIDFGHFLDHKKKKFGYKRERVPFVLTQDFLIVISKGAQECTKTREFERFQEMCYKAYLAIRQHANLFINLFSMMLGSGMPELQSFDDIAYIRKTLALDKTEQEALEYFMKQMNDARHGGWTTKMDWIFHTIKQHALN
PI3Kα H1047R mutant, sequence (P27986 whole entry partner): as the sequence (P27986 whole entry partner) above
Protocol: (§2) Cells were serum starved for 4 hours prior to compound treatment; compound solution was added to each well (3-fold serial dilution starting at desired concentration) for two hours in serum-free medium, followed by stimulation with IGF-1 for 60 minutes at a final concentration of 50 ng/ml as noted. After compound treatment and stimulation, discarded the supernatant and cells were lysed by cell lysis buffer (Cell Signaling Technology, #9803S). The lysate was transferred to the ELISA plate, the Phospho-AKT (Ser473) ELISA was performed as the manufacturer's directions (Cell Signaling Technology, #7160CA).

PI3Kα WT = PI3Kα WT (Homo sapiens, UniProt P42336); test: pAKT (S473) ELISA assay in WT cell line (SK-BR-3); assay type: cell-based; details: SK-BR-3 cells, two hours compound, IGF-1 50 ng/ml stimulation
PI3Kα WT, sequence (P42336 whole entry): as the sequence (P42336 whole entry H1047R) above, with R1047H counted along it
PI3Kα WT, sequence (P27986 whole entry partner): as the sequence (P27986 whole entry partner) above
Protocol: as §2

[4] = In vivo pharmacokinetics in mice; details: for clearance / bioavailability: male, CD1, mouse, plasma; for clearance: intravenous, 1 mg/kg; for bioavailability: oral, 5 mg/kg
Protocol: (§3) Dosing solutions were prepared at 0.5 mg/mL in 10% DMSO/10% HP—3-CD/80% water. A dosing solution was administered to Male CD1 mice (4-6 weeks, 20-30 g, 3 mice each group) via intravenous (TV) bolus at 1 mg/kg and by oral gavage (PO) at 5 mg/kg. The dose formulations were kept at room temperature and administrated within 30 mins for IV/PO. Blood samples (0.3 mL each time point) were collected into tubes containing ethylenediaminetetraacetic acid (K2EDTA) as the anticoagulant at 0, 0033, 0.083, 0.25, 05, 1, 2, 4, 8 and 24 hours post dose for IV administrated and 0, 0.083, 0.25, 0.5, 1, 2, 4, 8 and 24 hours post dose for PO administration. The blood sample were then centrifuged for 5 minutes in centrifuge refrigerated at 4° C. The samples were stored in a freezer at −75±15° C. prior to analysis. Concentrations of Compound in the plasma samples were analyzed using a LC-MS/MS method. WinNonlin (Phoenix™, version 8.3) or other similar software were used for pharmacokinetic calculations. The following pharmacokinetic parameters were calculated, whenever possible from the plasma concentration versus time data: MRT, Cmax, Tmax, AUClast, AUCinf, F %, Number of Points for Regression.

in vivo = details: male, CD1, mouse
Protocol: as §3

[5] = Homo sapiens, MDA-MB-453 (H1047R), 72 hours, CellTiter-Glo
[6] = MDA-MB-453 (H1047R), 72 hours, CellTiter-Glo
[7] = CD1 mice, IV bolus at 1 mg/kg and PO at 5 mg/kg

IC50 ([1]; Homo sapiens) [µM] | IC50 [2, 5] [µM] | IC50 ([3]; Homo sapiens, T47D, 72 h) [µM] | IC50 (PI3Kβ) [nM] | IC50 (PI3Kα H1047R mutant) [nM] | IC50 (PI3Kα WT) [nM] | Molecule | further results
8.5 | 0.05 | 0.04 | 545 | 25 | 1290 | Cc1cc([C@@H](C)Nc2ccccc2C(=O)O)c2oc(-c3ccc4nn(C)cc4c3)cc(=O)c2c1 (single isomer, unassigned) [Example 38B] | clearance [4]: 34 mL/min/kg; bioavailability [4]: 45.5%
5.6 | 0.15 | 0.076 | 6460 | 37 | 1100 | CC(=O)N1CCN(c2ccc(-c3oc4c([C@@H](C)Nc5ccccc5C(=O)O)cc(C)cc4c(=O)c3C)cc2)CC1 (single isomer, unassigned) [Example 123A] | 
> 10 | 2.49 | 1.98 |  |  |  | Cc1cc(C(C)Nc2ccccc2C(=O)O)c2oc(-c3cnoc3)cc(=O)c2c1 (centres unmarked) [Example 39, 2-((1-(2-(isoxazol-4-yl)-6-methyl-4-oxo-4H-chromen-8-yl)ethyl)amino)benzoic acid] | 
> 10 | 0.2 | 0.21 |  |  |  | Cc1cc(C(C)Nc2ccccc2C(=O)O)c2oc(-c3ccc(N4CCOCC4)cc3)cc(=O)c2c1 (centres unmarked) [Example 42, 2-((1-(6-methyl-2-(4-morpholinophenyl)-4-oxo-4H-chromen-8-yl)ethyl)amino)benzoic acid] | 
 |  |  |  |  |  | Cc1cc([C@@H](C)Nc2ccccc2C(=O)O)c2oc(-c3ccc4nn(C)cc4c3)c(C)c(=O)c2c1 [Example 49A, (R)-2-((1-(3,6-dimethyl-2-(2-methyl-211-indazol-5-yl)-4-oxo-4H-chromen-8-yl)ethyl)amino)benzoic acid] | IC50 [1]: > 10 µM; IC50 [2, 6]: 0.09 µM; IC50 [3]: 0.07 µM
 |  |  | 1220 |  |  | Cc1cc(C(C)Nc2ccccc2C(=O)O)c2oc(-c3ccc(-c4cnn(C)c4)cc3)cc(=O)c2c1 (centres unmarked) [Example 95, 2-((1-(6-methyl-2-(4-(1-methyl-1H-pyrazol-4-yl)phenyl)-4-oxo-4H-chromen-8-yl)ethyl)amino)benzoic acid] | 
 |  |  | 1150 |  |  | CC(Nc1ccccc1C(=O)O)c1cc(Cl)cc2c(=O)cc(-c3ccc4nn(C)cc4c3)oc12 (centres unmarked) [Example 98, 2-((1-(6-chloro-2-(2-methyl-2H-indazol-5-yl)-4-oxo-4H-chromen-8-yl)ethyl)amino)benzoic] | 
> 10 | 0.16 | 0.22 |  |  |  | Cc1cc(C(C)Nc2ccccc2C(=O)O)c2oc(-c3cc(C)c4nn(C)cc4c3)cc(=O)c2c1 (centres unmarked) [Example 109, 2-((1-(2-(2,7-dimethyl-21-indazol-5-yl)-6-methyl-4-oxo-4H-chromen-8-yl)ethyl)amino)benzoic acid] | 
> 10 |  | 0.087 | > 10000 |  |  | Cc1cc(C(C)Nc2ccc(Cl)nc2C(=O)O)c2oc(-c3ccc4nn(C)cc4c3)cc(=O)c2c1 (centres unmarked) [Example 110, 6-chloro-3-((1-(6-methyl-2-(2-methyl-2-indazol-5-yl)-4-oxo-4H-chromen-8-yl)ethyl)amino)picolinic acid] | 
> 10 | 0.029 | 0.041 | > 10000 | 42.3 | 2390 | Cc1cc([C@@H](C)Nc2ccccc2C(=O)O)c2oc(-c3ccc(OCCN(C)C)cc3)c(C)c(=O)c2c1 [Example 140, (R)-2-((1-(2-(4-(2-(dimethylamino)ethoxy)phenyl)-3,6-dimethyl-4-oxo-41-chromen-8-yl)ethyl)amino)benzoic acid] | 
> 10 |  | 0.066 | > 10000 | 48.5 | 4340 | Cc1cc([C@@H](C)Nc2ccccc2C(=O)O)c2oc(-c3ccc(CN4CCN(C)C(=O)C4)cc3)c(C)c(=O)c2c1 [Example 148, (R)-2-((1-(3,6-dimethyl-2-(4-((4-methyl-3-oxopiperazin-1-yl)methyl)phenyl)-4-oxo-4H-chromen-8-yl)ethyl)amino)benzoic acid] | 
> 10 | 0.13 | 0.064 | > 10000 | 25 | 2370 | Cc1cc([C@@H](C)Nc2ccccc2C(=O)O)c2oc(-c3ccc(-c4cnn(C)c4)nc3)c(C)c(=O)c2c1 [Example 150, (R)-2-((1-(3,6-dimethyl-2-(6-(1-methyl-H-pyrazol-4-yl)pyridin-3-yl)-4-oxo-41-chromen-8-yl)ethyl)amino)benzoic acid] | clearance [4]: 3.75 mL/min/kg; bioavailability [4]: 58.2%
> 10 | 0.089 | 0.058 |  |  |  | Cc1cc([C@@H](C)Nc2ccccc2C(=O)O)c2oc(-c3ccc(Cc4cnn(C)c4)cc3)c(C)c(=O)c2c1 [Example 151, 2-[[(1R)-1-[3,6-dimethyl-2-[4-[(1-methylpyrazol-4-yl)methyl]phenyl]-4-oxo-chromen-8-yl]ethyl]amino]benzoic acid] | 
> 10 | 0.086 | 0.074 |  |  |  | CC(=O)N1CCN(c2ccc(-c3oc4c([C@@H](C)Nc5ccccc5C(=O)O)cc(C)cc4c(=O)c3C)cc2F)CC1 [Example 154, (R)-2-((1-(2-(4-(4-acetylpiperazin-1-yl)-3-fluorophenyl)-3,6-dimethyl-4-oxo-41H-chromen-8-yl)ethyl)amino)benzoic acid] | 

Molecule | IC50 ([1]; Homo sapiens) [µM] | IC50 [2, 5] [µM] | IC50 ([3]; Homo sapiens, T47D, 72 h) [µM] | IC50 (PI3Kβ) [nM] | IC50 (PI3Kα H1047R mutant) [nM] | IC50 (PI3Kα WT) [nM] | further results
C[C@@H](Nc1ccccc1C(=O)O)c1cc(Cl)cc2c(=O)cc(-c3ccc4nn(C)cc4c3)oc12 (single isomer, unassigned) [Example 98B] |  |  |  |  | 19.5 | 1340 | IC50 [1]: > 10 µM; IC50 [2, 6]: > 10 µM; IC50 [3]: > 10 µM
Cc1cc(C(C)Nc2ccccc2S(N)(=O)=O)c2oc(-c3ccc4nn(C)cc4c3)c(C)c(=O)c2c1 (centres unmarked) [Example 131, 2-((1-(3,6-dimethyl-2-(2-methyl-2H-indazol-5-yl)-4-oxo-4H-chromen-8-yl)ethyl)amino)benzenesulfonamide] | > 10 |  |  |  |  |  | IC50 ([2]; Homo sapiens, MDA-MB-453, 72 h): 0.059 µM; IC50 ([3]; Homo sapiens): 0.055 µM
Cc1cc([C@@H](C)Nc2ccccc2C(=O)O)c2oc(-c3ccc(CN4CCN(C)CC4)cc3)c(C)c(=O)c2c1 [Example 147, 2-[[(1R)-1-[3,6-dimethyl-2-[4-[(4-methylpiperazin-1-yl)methyl]phenyl]-4-oxo-chromen-8-yl]ethyl]amino]benzoic acid] | > 10 |  |  | > 10000 | 46.5 | 6130 | IC50 ([3]; Homo sapiens): 0.055 µM; bioavailability (in vivo): 46.5%; clearance (in vivo): 10.9 mL/min/kg
(R)-2-((1-(6-methyl-2-(41-methyl-1H-pyrazol-4-yl)phenyl)-4-oxo-4H-chromen-8-yl)ethyl)amino)benzoic acid [Example 95A] |  |  |  |  | 12 | 1260 | IC50 [1]: > 10 µM; IC50 [3]: 0.09 µM; Cmax [4, 7]: 102 ng/mL; MRT [4, 7]: 7.64 h
